This is an account of results in patent US20060084688A1, “Aromatic sulfone hydroxamic acid metalloprotease inhibitor” (priority 1997, published 2006).

The test system of one data set is TNFrII. Nature of the data set: Tumor necrosis factor assay: TNF Receptor II ELISA on supernatant of PMA-stimulated U-937 cells. Particulars: Homo sapiens, U-937, read-out: TNFRII Release IC50 in micromolar.
Data set [1] relates to human monocytic line U-937. The format is cell-based.
The target of another data set is T1, recombinant human MMP-2 (Homo sapiens, UniProt P08253).
T1 sequence (P08253 110-660): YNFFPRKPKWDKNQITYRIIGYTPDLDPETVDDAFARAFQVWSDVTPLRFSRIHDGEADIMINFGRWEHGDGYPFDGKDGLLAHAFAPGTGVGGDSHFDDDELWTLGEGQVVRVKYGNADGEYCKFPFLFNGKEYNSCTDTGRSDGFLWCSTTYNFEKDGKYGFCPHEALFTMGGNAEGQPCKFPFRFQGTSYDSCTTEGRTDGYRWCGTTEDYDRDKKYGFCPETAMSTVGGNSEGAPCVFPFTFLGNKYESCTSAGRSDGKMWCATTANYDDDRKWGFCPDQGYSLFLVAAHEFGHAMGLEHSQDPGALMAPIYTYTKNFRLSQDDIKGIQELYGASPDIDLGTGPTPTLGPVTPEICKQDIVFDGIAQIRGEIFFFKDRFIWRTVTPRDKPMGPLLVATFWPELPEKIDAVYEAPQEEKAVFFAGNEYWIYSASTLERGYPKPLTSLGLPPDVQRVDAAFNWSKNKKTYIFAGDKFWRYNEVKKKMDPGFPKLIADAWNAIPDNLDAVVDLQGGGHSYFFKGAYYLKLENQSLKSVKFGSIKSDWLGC
Put plainly: biochemical. Particulars: Inhibition Table B.

Another data set addresses T2, recombinant human MMP-1 (Homo sapiens, UniProt P03956).
T2 construct: made in house; host or cells: transfected HT-1080 cells
T2 sequence (P03956 100-469): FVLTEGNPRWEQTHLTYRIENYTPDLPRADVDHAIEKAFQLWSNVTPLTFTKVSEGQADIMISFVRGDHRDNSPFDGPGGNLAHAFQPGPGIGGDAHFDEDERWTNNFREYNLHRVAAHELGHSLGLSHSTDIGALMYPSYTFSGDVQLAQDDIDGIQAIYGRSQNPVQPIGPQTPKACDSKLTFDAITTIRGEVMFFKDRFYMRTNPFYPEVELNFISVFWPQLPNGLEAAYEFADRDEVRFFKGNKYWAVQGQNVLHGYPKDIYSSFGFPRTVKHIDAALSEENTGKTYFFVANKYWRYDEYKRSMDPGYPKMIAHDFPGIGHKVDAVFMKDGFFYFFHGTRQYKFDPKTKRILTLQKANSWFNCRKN
Nature of the data set: biochemical. The settings on record: Inhibition Table B.

Another data set deals with recombinant human MMP-13 (Homo sapiens, UniProt P45452). Put plainly: biochemical. Particulars: Inhibition Table B.

The structures appear in SMILES notation. Structures can show the parent of a compound that is named as a salt. Where two headings read alike, the source gives them in different places.

For `Cl.O=C(NO)C1(S(=O)(=O)c2ccc(Oc3ccccc3)cc2)CCNCC1` [Example 4, N-hydroxy-4-[(4-phenoxyphenyl)sulfonyl]-4-piperidinecarboxamide], in the data set on TNFrII, the IC50 (as a rule, the point on the concentration scale where inhibition reaches its midpoint) was more than 100 µM. Also, the “MTS Toxicity TD50” value in data set [1] was more than 100 µM.
The matching figures for `C#CCN1CCC(C(=O)NO)(S(=O)(=O)c2ccc(Oc3ccccc3)cc2)CC1.Cl` [Example 6, N-hydroxy-4-[(4-phenoxyphenyl)sulfonyl]-1-(2-propynyl)-4-piperidinecarboxamide]: more than 100 µM and more than 100 µM.
The matching figures for `C#CCN1CCC(C(=O)NO)(S(=O)(=O)c2ccc(Sc3ccccc3)cc2)CC1.Cl` [Example 9, N-hydroxy-4-([4-(phenylthio)phenyl]sulfonyl]-1-(2-propynyl)-4-piperidinecarboxamide]: more than 100 µM and more than 100 µM.
The matching figures for `C#CCN1CCC(C(=O)NO)(S(=O)(=O)c2ccc(Oc3ccc4c(c3)OCO4)cc2)CC1.Cl` [Example 10, 4-[[4-(1,3-benzodioxol-5-yloxy)phenyl]sulfonyl]-N-hydroxy-1-(2-propynyl)-4-piperidinecarboxamide]: more than 100 µM and more than 100 µM.
As for `C#CCN1CCC(C(=O)NO)(S(=O)(=O)c2ccc(SC3CCCCC3)cc2)CC1.Cl` [Example 13, 4-[[4-(cyclohexylthio)-phenyl]sulfonyl]-N-hydroxy-1-(2-propynyl)-4-piperidinecarboxamide], in the data set with TNFrII, the IC50 is more than 100 µM. Also, the “MTS Toxicity TD50” value in data set [1] is more than 100 µM.
The matching figures for `Cl.O=C(NO)C1(S(=O)(=O)c2ccc(Sc3ccc(F)cc3)cc2)CCN(C2CC2)CC1` [Example 27, 1-cyclopropyl-4-[[4-[(4-fluorophenyl)thio]phenyl]sulfonyl]-N-hydroxy-4-piperidinecarboxamide]: more than 100 µM and 100 µM.
The matching figures for `COCCN1CCC(C(=O)NO)(S(=O)(=O)c2ccc(Sc3ccccc3)cc2)CC1.Cl` [Example 35, N-hydroxy-1-(2-methoxyethyl)-4-[[4-(phenylthio)phenyl]-sulfonyl]-4-piperidinecarboxamide, monohydrochloride]: more than 100 µM and more than 100 µM.
Turning to `O=C(NO)C1(S(=O)(=O)c2ccc(Oc3ccc(OC(F)(F)F)cc3)cc2)CCOCC1` [Example 69], the IC50 with TNFrII was more than 100 µM. Besides, the “MTS Toxicity TD50” value in data set [1] was determined as 100 µM. Besides, the “Blood Level @ 3 min” value (rat, in vivo, 20 mg/kg) was 44000 ng/mL. Further, where the note is “rat, in vivo, po, 20 mg/kg”, the BA amounted to 35.9% and the “Blood Level @ 6 hr” value turned out to be 1172 ng/mL.
On to `Cc1cc(Oc2ccc(S(=O)(=O)C3(C(=O)NO)CCNCC3)cc2)ccc1Cl.Cl` [Example 79, 4-[[4-(4-chloro-3-methylphenoxy)phenyl]sulfonyl]-N-hydroxy-4-piperidinecarboxamide, monohydrochloride], for which the IC50 at recombinant human MMP-2 was determined as 0.001 µM. For the same compound, the IC50 on recombinant human MMP-1 was more than 10 µM. Also, the IC50 on recombinant human MMP-13 turned out to be 0.0017 µM. In addition, where the note is “Rat Intraveneous, 20 mpk”, the “AUC (0-∞)” value is 6110 ng·h/mL and the t1/2 was determined as 1.82 h. Also, the “Blood Level @ 3 min” value (Rat Intraveneous, 20 mpk, 3 min) is 13990 ng/mL. Besides, for the setting “Rat Oral, 20 mpk”, the “AUC (0-6 hr)” value is 70 ng·h/mL, the BA was found to be 1.1% and the Cmax (usually the peak of the concentration-time curve) came out at 20 ng/mL. For the same compound, the “Blood Level @ 6 hr” value (Rat Oral, 20 mpk, 6 hr) is 10 ng/mL.
Consider `O=C(NO)C1(S(=O)(=O)c2ccc(Sc3ccccc3)cc2)CCOCC1` [Example 95, Tetrahydro-N-hydroxy-4-[[4-(phenylthio)phenyl]sulfonyl]-2H-pyran-4-carboxamide], for which the IC50 in the data set on TNFrII is more than 100 µM. Besides, the “MTS Toxicity TD50” value in data set [1] is more than 100 µM. Also, the t1/2 (Rat Intraveneous, 20 mpk) stood at 1.06 h.
The matching figures for `O=C(NO)C1(S(=O)(=O)c2ccc(Oc3ccc(C(F)(F)F)cc3)cc2)CCOCC1` [Example 379]: more than 100 µM, 80 µM and 1.74 h.
With `O=C(NO)C1(S(=O)(=O)c2ccc(Oc3ccc(C(F)(F)F)cc3)cc2)CCN(CCN2CCOCC2)CC1` [Example 388, N-hydroxy-1-[2-(4-morpholinyl)-ethyl]-4-[(4-(4-(trifluoromethyl)phenoxy]-phenyl]sulfonyl]-4-piperidinecarboxamide, dihydrochloride], under “Rat Intraveneous, 20 mpk”, the t1/2 was found to be 0.94 h.
The compound `O=C(NO)C1(S(=O)(=O)c2ccc(Oc3ccc(C(F)(F)F)cc3)cc2)CCN(Cc2cccnc2)CC1` [Example 390, N-hydroxy-1-(3-pyridinylmethyl)-4-[[4-(4-trifluoromethyl)phenoxy]phenyl]-sulfonyl]-4-piperidinecarboxamide, dihydrochloride] gave a t1/2 (Rat Intraveneous, 20 mpk) of 1.50 h.
On the same count and under the same terms, the value for `O=C(NO)C1(S(=O)(=O)c2ccc(Oc3ccc(C(F)(F)F)cc3)cc2)CCN(Cc2ccccn2)CC1` [Example 391, N-hydroxy-1-(2-pyridinylmethyl)-4-[[4-[4-(trifluoromethyl)phenoxy]phenyl]-sulfonyl]-4-piperidinecarboxamide, dihydrochloride] was 1.45 h; that for `Cl.O=C(NO)C1(S(=O)(=O)c2ccc(Oc3ccc4c(c3)OCCO4)cc2)CCN(C2CC2)CC1` [Example 408, 1-cyclopropyl-4-[[4-[(2,3-dihydro-1,4-benzodioxin-6-yl)oxy]phenyl]-sulfonyl]-N-hydroxy-4-piperidine-carboxamide, monohydrochloride] was 3.30 h.
Still for that read-out and setting: in the case of `Cl.O=C(NO)C1(S(=O)(=O)c2ccc(Oc3ccc(OC(F)(F)F)cc3)cc2)CCNCC1` [Example 410, N-hydroxy-4-[[4-[(trifluoromethoxy)phenoxy]phenyl]sulfonyl]-4-piperidinecarboxamide, monohydrochloride] it was 1.78 h; in that of `C#CCN1CCC(C(=O)NO)(S(=O)(=O)c2ccc(Oc3ccc(C(C)C)cc3)cc2)CC1.Cl` [Example 414, N-hydroxy-4-[[4-[4-(1-methylethyl)phenoxy]phenyl]sulfonyl]-1-(2-propynyl)-4-piperidinecarboxamide, monohdyrochloride], 0.73 h; in that of `COCCN1CCC(C(=O)NO)(S(=O)(=O)c2ccc(Oc3ccc(OC(F)(F)F)cc3)cc2)CC1.Cl` [Example 416, N-hydroxy-1-(2-methoxyethyl)-4-[[4-[4-(trifluoro-methoxy)phenoxy]phenyl]sulfonyl}-4-piperidinecarboxamide, monohydrochloride], 2.94 h.
For the compound `COCCN1CCC(C(=O)NO)(S(=O)(=O)c2ccc(Oc3ccc(C(F)(F)F)cc3)cc2)CC1.Cl` [Example 418, N-hydroxy-1-(2-methoxyethyl)-4-[[4-[4-(trifluoromethyl)-phenoxy]phenyl]sulfonyl}-4-piperidinecarboxamide, monohydrochloride], the t1/2 (Rat Intraveneous, 20 mpk) was 2.42 h.
`Cl.O=C(NO)C1(S(=O)(=O)c2ccc(Oc3ccc4c(c3)OCO4)cc2)CCN(C2CC2)CC1` [Example 421, 4-[[4-(1,3-benzodioxol-5-yloxy)phenyl]sulfonyl]-1-cyclopropyl-N-hydroxy-4-piperidinecarboxamide, monohydrochloride]: the “Blood Level @ 6 hr” value (rat, in vivo, po, 20 mg/kg) is 206 ng/mL.
As for `Cl.O=C(NO)C1(S(=O)(=O)c2ccc(Oc3ccc(C(F)(F)F)cc3)cc2)CCN(C2CC2)CC1` [Example 427, 1-cyclopropyl-N-hydroxy-4-[[4-[4-(trifluoromethyl)phenoxy]phenyl]sulfonyl]-4-piperidinecarboxamide, monohydrochloride], the t1/2 (Rat Intraveneous, 20 mpk) is 2.85 h.
The same measure, in the same setting: in the case of `CCN1CCC(C(=O)NO)(S(=O)(=O)c2ccc(OCc3ccc(C(F)(F)F)cc3)cc2)CC1.Cl` [Example 438, 1-ethyl-N-hydroxy-4-[(4-[[4-[trifluoromethyl)phenyl]methoxy]-phenyl]sulfonyl]-4-piperidine-carboxamide, monohydrochloride] it was 2.14 h.
